{
  "source": "patent US9566262B2",
  "about": "“Itch suppression by fucoxanthin” (THE RITSUMEIKAN TRUST, priority 2015, dated 2017)",
  "key": {"NC/Nga mice": {"tested_on": "NC/Nga mice", "assay": "BrdU uptake in auricular lymph node cells of NC/Nga mice (ELISA)", "type": "in vivo", "settings": "topical application for 5 weeks, BrdU i.p. on day 34, vs Vaseline", "text": "On day 12, day 19, day 26 and day 33 after starting application of Vaseline or fucoxanthin, 0.8% picryl chloride (PiCl) was further applied to the back skin of the mice. The behaviors of the mice were observed by video monitoring. On day 34 after starting application of Vaseline or fucoxanthin, bromodeoxyuridine (BrdU, Nacalai Tesque) ([…]) was intraperitoneally administered to the mice. At 5 weeks after starting application of Vaseline or fucoxanthin, the time each mouse spent for scratching behavior in 10 minutes was measured by video monitoring. Then, the mice were sacrificed and the auricular lymph node, blood and skin were obtained. Serum IgE content was determined by enzyme-linked immunosorbent assay (ELISA) using Mouse IgE Assay Kit (Morinaga Institute of Biological Science, Inc.). The auricular lymph node was digested with 0.1% trypsin/0.1% collagenase, the obtained dissociated cells were suspended by pipetting, and the enzyme reaction was stopped by adding Dulbecco's modified Eagle medium (DMEM) containing 10% fetal bovine serum (Wako Pure Chemical Industries, Ltd.). BrdU uptake was determined by ELISA using Cell Proliferation ELISA, BrdU (Colorimetric) (Roche Diagnostics K.K.)."}, "bone marrow cells": {"tested_on": "bone marrow cells", "assay": "Formation of bone marrow-derived mast cells (BMMCs) from bone marrow cells", "type": "cell-based, mice", "settings": "0.1 μM, 1 μM or 10 μM, vs DMSO", "method": "Bone marrow cells were obtained from 8-week-old female mice and cultured in a medium for conditioning that contained WEHI-3 cells (National Institute of Biomedical Innovation, Health and Nutrition). The culture was performed according to the method described in Yamashita, U. et al. (2005) “Strain difference of murine bone marrow-derived mast cell functions.” J. Leukoc. Biol. 78(3): 605-611. The bone marrow cells were treated with 0.1 μM, 1 μM or 10 μM fucxanthin, or dimethyl sulfoxide (DMSO) as a control. The number of BMMCs containing 10 fields (100 μm×100 μm) per well was counted (FIG. 2C)."}, "Cebpα": {"tested_on": "Cebpα", "assay": "Real time PCR gene expression in bone marrow cells cultured with IL-3", "type": "cell-based, mice", "settings": "vs DMSO", "method": "(§1) Bone marrow cells obtained from 8-week-old female mice was cultured in a medium for conditioning containing IL-3. On the day the bone marrow cells were obtained (day 0), 10 μM fucoxanthin or dimethyl sulfoxide (DMSO) as a control was added to the culture solution and the cells were cultured for 1, 2, 3 or 4 weeks. Quantitative real time PCR was performed according to the method described in Kosaka et al. (supra). Five different cDNA pool dilutions were used for the experiments. The expression levels of PCR products were normalized to that of a housekeeping gene, GAPDH or β-actin, and the measured values were compared with cycle threshold value (Ct value). The primers used are shown below.\n(§2) The housekeeping genes GAPDH and β-actin were used for normalization as internal standards. All measurements were performed 4 times."}, "FcεRIα": {"tested_on": "FcεRIα", "assay": "Real time PCR gene expression in bone marrow cells cultured with IL-3", "type": "cell-based, mice", "settings": "10 μM added day 0, cultured 1-4 weeks, vs DMSO", "method": "as §1, §2"}, "GATA-1": {"tested_on": "GATA-1", "assay": "Real time PCR gene expression in bone marrow cells cultured with IL-3", "type": "cell-based, mice", "settings": "10 μM added day 0, cultured 1-4 weeks, vs DMSO", "method": "as §1, §2"}, "GATA-2": {"tested_on": "GATA-2", "assay": "Real time PCR gene expression in bone marrow cells cultured with IL-3", "type": "cell-based, mice", "settings": "10 μM added day 0, cultured 1-4 weeks, vs DMSO", "method": "as §1, §2"}, "Mitf1": {"tested_on": "Mitf1", "assay": "Real time PCR gene expression in bone marrow cells cultured with IL-3", "type": "cell-based, mice", "settings": "10 μM added day 0, cultured 1-4 weeks, vs DMSO", "method": "as §1, §2"}, "PU.1": {"tested_on": "PU.1", "assay": "Real time PCR gene expression in bone marrow cells cultured with IL-3", "type": "cell-based, mice", "settings": "10 μM added day 0, cultured 1-4 weeks, vs DMSO", "method": "as §1, §2"}, "[1]": {"tested_on": "histidine decarboxylase (Hdc)", "assay": "Real time PCR gene expression in bone marrow cells cultured with IL-3", "type": "cell-based, mice", "settings": "10 μM added day 0, cultured 1-4 weeks, vs DMSO", "method": "as §1, §2"}, "GATA-luc": {"tested_on": "GATA-luc", "assay": "Luciferase reporter assay in HEK293 cells", "type": "cell-based", "settings": "HEK293, treated 3 hours after transfection for 48 hours, vs DMSO (fucoxanthin 0.1, 1, 10 μM)", "text": "(§3) The plasmids pGL3-Cebpα promoter-luc and pGL3-Mitf1 promoter-luc were provided by Dr. Hua Huang (University of Colorado school, Denver, USA). The plasmid NF-κB-luc was purchased from Agilent Technologies (Santa Clara, Calif.). The GATA-responsive reporter vector was provided by Dr. Ishijima (Takasaki University of Health and welfare, Gunma, Japan). Three GATA motifs from mouse α-1 globulin gene (5′-TGATAA-3′) were tandemly inserted into Sma I site of pRBGP3. HDC promoter was provided by Dr. Ootsu (Tohoku University school of Medicine, Sendai, Japan) and cloned into Kpn I-Hind III site of pGL4.10 (Hdc promoter-luc). The reporter assay was performed according to the method described in Kanatani, N. et al. Briefly, HEK293 cells were transfected with each of the luciferase constructs (0.2 μg) or pRL-CMV (Promega, Madison, Wis.) (0.001 μg). At 3 hours after transfection, the cells were treated with fucoxanthin (0.1 μM, 1 μM or 10 μM) or DMSO for 48 hours and reporter assay was performed using Dual-Luciferase® Reporter Assay System (Promega). Luciferase activity was measured using luminometer model TD20/20n (Turner BioSystems, Sunnyvale, Calif.) and normalized to Renilla luciferase activity expressed by CMV promoter.\nGATA-reporter assay was performed using HEK293 cells expressing GATA-luc prepared in Example 8, in the same manner as described in Example 8 except using various carotenoids (fucoxanthin, astaxanthin, lycopene, β-carotene or retinoic acid) in place of fucoxanthin."}, "Cebpα-luc": {"tested_on": "Cebpα-luc", "assay": "Luciferase reporter assay in HEK293 cells", "type": "cell-based", "settings": "HEK293, 0.1, 1 or 10 μM for 48 hours, vs DMSO", "text": "as §3"}, "Hdc-luc": {"tested_on": "Hdc-luc", "assay": "Luciferase reporter assay in HEK293 cells", "type": "cell-based", "settings": "HEK293, 0.1, 1 or 10 μM for 48 hours, vs DMSO", "text": "as §3"}, "Mitf1-luc": {"tested_on": "Mitf1-luc", "assay": "Luciferase reporter assay in HEK293 cells", "type": "cell-based", "settings": "HEK293, 0.1, 1 or 10 μM for 48 hours, vs DMSO", "text": "as §3"}, "NF-κB-luc": {"tested_on": "NF-κB-luc", "assay": "Luciferase reporter assay in HEK293 cells", "type": "cell-based", "settings": "HEK293, 0.1, 1 or 10 μM for 48 hours, vs DMSO", "text": "as §3"}, "filaggrin (Flg)": {"tested_on": "filaggrin (Flg)", "assay": "Immunohistochemical analysis of skin of NC/Nga mice", "type": "in vivo", "settings": "topical treatment for 5 weeks, vs Vaseline", "method": "(§4) Vaseline or fucoxanthin and PiCl were applied to the mice in the same manner as described in Example 2. At 5 weeks after starting application of Vaseline or fucoxanthin, the mice were sacrificed the mice skins were fixed with 4% paraformaldehyde and analyzed according to the method described in Kosaka, T. et al. (supra). The skin section (10 μm thick) was analyzed immunohistochemically using a rabbit anti-filaggrin antibody (Santa Cruz Biotechnology, Inc.) and a rabbit anti-loricrin antibody (Covance). Then, the sample was reacted with an FITC-conjugated anti-rabbit IgG IgG (Santa Cruz Biotechnology, Inc.)."}, "loricrin (Lor)": {"tested_on": "loricrin (Lor)", "assay": "Immunohistochemical analysis of skin of NC/Nga mice", "type": "in vivo", "settings": "topical treatment for 5 weeks, vs Vaseline", "method": "as §4"}},
  "note": "“Also recorded” adds a separate entry of the source.",
  "data": [
    {"compound": "CC(=O)O[C@H]1CC(C)(C)C(=C=C/C(C)=C/C=C/C(C)=C/C=C/C=C(C)/C=C/C=C(\\C)C(=O)C[C@@]23O[C@]2(C)C[C@@H](O)CC3(C)C)[C@](C)(O)C1", "note": "[fucoxanthin]", "values": [
      {"measurement": "BrdU uptake (cell proliferation in the auricular lymph node)", "setting": "NC/Nga mice", "value": "not affected"},
      {"measurement": "BMMC formation (number of BMMCs)", "setting": "bone marrow cells", "value": "suppressed BMMC formation in a dose-dependent manner"},
      {"measurement": "expression of Cebpα, 3 to 4 weeks", "setting": "Cebpα; 10 μM added day 0, 3 to 4 weeks after starting culture", "value": "remarkably upregulated"},
      {"measurement": "expression of Cebpα, first 2 weeks", "setting": "Cebpα; 10 μM added day 0, first 2 weeks of culture", "value": "downregulated"},
      {"measurement": "expression of FcεRIα", "setting": "FcεRIα", "value": "downregulated"},
      {"measurement": "expression of GATA-1", "setting": "GATA-1", "value": "downregulated"},
      {"measurement": "expression of GATA-2", "setting": "GATA-2", "value": "downregulated"},
      {"measurement": "expression of Mitf1", "setting": "Mitf1", "value": "did not change significantly"},
      {"measurement": "expression of PU.1", "setting": "PU.1", "value": "did not change significantly"},
      {"measurement": "expression of Hdc", "setting": "[1]", "value": "downregulated"},
      {"measurement": "GATA-luc expression", "setting": "GATA-luc", "value": "downregulated"},
      {"measurement": "Cebpα-luc reporter activity", "setting": "Cebpα-luc", "value": "not regulated"},
      {"measurement": "Hdc-luc reporter activity", "setting": "Hdc-luc", "value": "not regulated"},
      {"measurement": "Mitf1-luc reporter activity", "setting": "Mitf1-luc", "value": "not regulated"},
      {"measurement": "NF-κB activity (NFκB-luc)", "setting": "NF-κB-luc", "value": "not affected"},
      {"measurement": "filaggrin expression in the epidermis (immunohistochemistry)", "setting": "filaggrin (Flg)", "value": "elevated; also recorded: abundantly localized in the stratum corneum"},
      {"measurement": "loricrin expression in the epidermis (immunohistochemistry)", "setting": "loricrin (Lor)", "value": "elevated; also recorded: distributed in the whole skin"}
    ]}
  ]
}
